Assay results reported in patent publication US11033538B2, “Dosing regimens for the treatment of lysosomal storage diseases using pharmacological chaperones” (Amicus Therapeutics, Inc., priority 2007, dated 2021).

Tested on: patients with Fabry disease
Assay: Example 15, safety analysis and adverse events
Format: in vivo, human
Excerpt: Randomized patients receiving ≥1 dose were included in the safety analysis, which comprised vital signs, physical exams, electrocardiograms, clinical labs, and adverse events.

[1] = open-label-extension, 6/57 patients

OC[C@H]1NC[C@H](O)[C@@H](O)[C@H]1O [DGJ, (2R,3S,4R,5S)-2-(hydroxymethyl) piperdine-3,4,5-triol]
patients with serious adverse events (Stage 1, DGJ arm): 2 patients | nasopharyngitis frequency (Stage 1, DGJ, 6/34 patients): 18% | headache frequency (Stage 1, DGJ, 12/34 patients): 35% | procedural pain frequency (Stage 2, 7/63 patients, related to kidney biopsies): 11% | headache frequency (Stage 2, 9/63 patients): 14% | serious adverse events possibly related to DGJ (fatigue and paresthesia, same patient, months 12-24, resolved): Two serious adverse events were assessed as possibly related to DGJ | deaths (in vivo): No deaths were reported | discontinuation due to adverse events (in vivo): No adverse events led to DGJ discontinuation | severity of adverse events (in vivo): Most adverse events were mild or moderate in severity | vital sign, physical findings, laboratory and ECG parameters (in vivo): did not reveal any clinically relevant effect of DGJ | bronchitis frequency [1]: 11% | headache frequency [1]: 11% | proteinuria frequency (open-label-extension, 9/57 patients): 16% | patients whose 24-hour urine protein remained stable during DGJ treatment (patients with baseline proteinuria <300 mg/24-h): 23/28
